{"source": "paper PMC10542788", "about": "“Discovery of a cystathionine γ-lyase (CSE) selective inhibitor targeting active-site pyridoxal 5′-phosphate (PLP) via Schiff base formation” (Scientific Reports, 2023)", "key": {"[1]": {"tested_on": "L-alanine transaminase (ALT)", "design": "method as in PMID 7364752", "details": "cited from earlier work"}, "ALT": {"tested_on": "ALT", "experiment": "ALT inhibition, coupled absorbance assay (NADH, 340 nm)", "format": "biochemical", "details": "30 µM", "procedure": "(§1) The selectivity of 1, 2 and PAG for rCSE over other RSS-producing enzymes, CBS and 3MST, was examined (Fig. 4a). CBS is a PLP-dependent enzyme, like CSE, and produces H2S from cysteine and homocysteine as substrates. 3MST is also an H2S-producing enzyme, but is not PLP-dependent and uses 3-mercaptopyruvate as a substrate. The amount of H2S produced by CBS or 3MST was evaluated in the presence or absence of the inhibitor by measuring the fluorescence intensity of HSip-1. […] We also examined the inhibitory activity towards two other PLP-dependent enzymes, MGL and ALT. MGL metabolizes L-methionine to α-ketobutyric acid, methanethiol and ammonia, and is inhibited by PAG[14]. MGL also produces H2S from homocysteine as a substrate, and this activity of MGL can be measured by fluorescence detection with HSip-1. […] The enzymatic activity of ALT can be assessed by means of a coupled assay using the reduction of pyruvate to L-lactate with lactate dehydrogenase and NADH and measuring the change in absorption of NADH.\nAn alanine aminotransferase activity assay kit (BioVision, Inc.) was used to measure the activity of ALT. A mixture of L-alanine, NADH, LDH (lactate dehydrogenase) and ALT was incubated at 37 °C for 15 min, then α-ketoglutarate was added to the mixture and the absorbance at 340 nm was measured with a microplate reader."}, "MGL": {"tested_on": "MGL", "experiment": "MGL inhibition, HSip-1 fluorescence", "format": "biochemical", "details": "30 µM", "procedure": "as §1\n10 µL of 200 µM homocysteine in 30 mM HEPES (pH 7.4) was added to 10 µL of a solution containing 20 µg/mL MGL (Sigma-Aldrich), 100 µM PLP, 1 µM HSip-1, 0.005% tween 20 and various concentrations of the inhibitor (0.5% DMSO as a cosolvent). The mixture was incubated at 25 °C for 100 min and the fluorescence intensity of HSip-1 was measured with a microplate reader."}, "methionine γ-lyase (MGL)": {"tested_on": "methionine γ-lyase (MGL)", "design": "method as in PMID 12920135", "details": "cited from earlier work"}, "rat CSE (rCSE)": {"biological_target": "T1, rat CSE (rCSE) (Rattus norvegicus, UniProt P18757)", "T1 construct": "His-tag (C); made in house; host or cells: E. coli BL21", "experiment": "rCSE inhibition, H2S detection by fluorescence of HSip-1", "format": "biochemical", "details": "for IC50: fluorescence assay with HSip-1, 1.5 mM cysteine, 100 μM PLP, mean ± S.E., read-out: IC50, inhibitory activity towards rCSE", "procedure": "The developed assay system employs a plate reader to detect H2S production by CSE as a fluorescence signal in a solution containing 30 μg/mL rat CSE (rCSE), 1 μM HSip-1, 100 μM pyridoxal-5′-phosphate (PLP) and 1.5 mM cysteine (a substrate) in a 384-well plate format (Fig. 1b). A large amount of rCSE was expressed in E. coli and purified on a Ni Sepharose 6 Fast Flow module. We then performed screening of a chemical library consisting of 161,600 compounds (from the Drug Discovery Initiative, the University of Tokyo) for CSE inhibitors (Fig. 1c). […] Then, a confirmation test for repeatability (n = 4) of the 160 compounds selected in the 1st screening was performed to exclude false-positives. In this step, we also excluded cysteine-reactive compounds by changing the addition order of the rCSE and cysteine (substrate) solutions. In other words, in the 1st screening, the enzyme solution was firstly added to each library compound, while in the confirmation test for repeatability of the hit compounds in the 1st screening, we firstly added the cysteine solution to each compound. This enabled us to identify and exclude cysteine-reactive compounds, based on their reaction with the added cysteine. These procedures left 80 compounds showing both more than 40% inhibition at 10 µM and similar % inhibition of rCSE irrespective of the addition order of the rCSE and cysteine solutions. In the 2nd screening, we examined the reactivity of these 80 compounds with H2S using an H2S donor[17] to exclude H2S-reactive compounds. […] In this assay, we selected 13 compounds which were non-reactive to H2S, but one was relatively unstable and two of them were the same compound, so that 11 compounds were finally selected. These compounds included some hydrazine and hydrazide derivatives, so we performed titration assay of the selected 11 compounds together with 9 commercially available hydrazine and hydrazide compounds (Supplementary Fig. S3) and calculated the half-maximal (50%) inhibitory concentration (IC50) of each compound.\nThe fluorescence intensity of HSip-1 was measured (λex = 490 nm, λem = 510 nm) with a microplate reader (EnVision, Perkin Elmer).\n10 µL of 1.5 mM cysteine solution in 30 mM HEPES (pH 7.4) was added to 10 µL of solution containing 30 µg/mL rCSE, 100 µM PLP, 1 µM HSip-1, 0.005% tween 20 and the test compound (0.5% DMSO as a cosolvent). The mixture was incubated at 25 °C for 3 h and the fluorescence intensity of HSip-1 was measured with a microplate reader."}}, "data": [{"compound": "C#CCC(N)C(=O)O", "note": "(racemic) [PAG, D,L-Propargylglycine, reference compound]", "values": [{"measurement": "inhibition of ALT", "setting": "[1]", "value": "inhibited"}, {"measurement": "inhibitory activity towards ALT / selectivity for CSE over ALT", "setting": "ALT", "value": "inhibited both MGL and ALT"}, {"measurement": "inhibitory activity towards MGL / selectivity for CSE over MGL", "setting": "MGL", "value": "inhibited both MGL and ALT"}, {"measurement": "inhibition of MGL", "setting": "methionine γ-lyase (MGL)", "value": "inhibited"}]}, {"compound": "CCNC(=O)C(=O)NN", "note": "[Compound 3]", "values": [{"measurement": "IC50", "setting": "rat CSE (rCSE)", "value": "> 100", "unit": "µM"}]}, {"compound": "NNC(=O)C(=O)Nc1ccccc1", "note": "[Compound 4]", "values": [{"measurement": "IC50", "setting": "rat CSE (rCSE)", "value": "> 100", "unit": "µM"}]}, {"compound": "CNC(=O)C(=O)NN", "note": "[Compound 2]", "values": [{"measurement": "selectivity for CSE over other enzymes (CBS, 3MST, MGL, ALT)", "setting": "rat CSE (rCSE); 3 µM", "value": "high selectivity for CSE"}, {"measurement": "IC50", "setting": "rat CSE (rCSE)", "value": "0.43 ± 0.02", "unit": "µM"}, {"measurement": "inhibitory activity towards ALT / selectivity for CSE over ALT", "setting": "ALT", "value": "some inhibitory activity towards MGL and ALT"}, {"measurement": "inhibitory activity towards MGL / selectivity for CSE over MGL", "setting": "MGL", "value": "some inhibitory activity towards MGL and ALT"}]}]}
